- melting point: 61 to 65 °C
Structure (SMILES): CC(C)CC1CC1c1ccccc1NC(=O)c1cn(C)cc1C(F)(F)F (stereo not shown) [Compound 3.17, 1-methyl-4-trifluoromethyl-1H-pyrrole-3-carboxylic acid [2-(2-isobutyl-cyclopropyl)phenyl]amide]
